PubChem BioAssay AID1259411 (Chemical Carcinogenesis Research Information System (CCRIS), 2018)
Calls of active or inactive are those of the source. No rule for the calls is given here.

Tested on: rodent carcinogenicity bioassays, tumor incidence
Assay: CCRIS carcinogenicity studies
Method in brief: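 Archive of carcinogenicity, mutagenicity, tumor promotion and tumor inhibition results drawn from journals, NCI reports and other sources, expert-reviewed; covers 1985-2011 and is no longer updated.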

What does the source list for O=C1OC2(c3ccccc31)c1cc(I)c(O)c(I)c1Oc1c2cc(I)c(O)c1I?
carcinogen call (Species: MOUSE, Strain/Sex: CD-1/FEMALE, Route: ORAL, Dose: 0, 0.3, 1.0, 3.0% IN DIET FOR 24 MO (STUDY DURATION: 24 MO), Dose: 0, 0.3, 1.0, 3.0% IN DIET FOR 24 MO (STUDY DURATION: 24 MO)): inactive; negative; carcinogen call (Species: MOUSE, Strain/Sex: CD-1/MALE, Route: ORAL, Dose: 0, 0.3, 1.0, 3.0% IN DIET FOR 24 MO (STUDY DURATION: 24 MO), Dose: 0, 0.3, 1.0, 3.0% IN DIET FOR 24 MO (STUDY DURATION: 24 MO)): inactive; negative; carcinogen call (Species: MOUSE, Strain/Sex: ICR/FEMALE, Route: DERMAL, Dose: 0, 1 MG IN 0.1 ML DISTILLED WATER 2/WK FOR A MEAN TOTAL DOSE OF 133 MG (STUDY DURATION: 18 MO)): inactive; negative; carcinogen call (Species: MOUSE, Strain/Sex: ICR/MALE, Route: DERMAL, Dose: 0, 1 MG IN 0.1 ML DISTILLED WATER 2/WK FOR A MEAN TOTAL DOSE OF 133 MG (STUDY DURATION: 18 MO)): inactive; negative; carcinogen call (Species: RAT, Strain/Sex: CD-1/FEMALE, Route: ORAL, Dose: 0, 0.1, 0.5, 1% IN DIET FOR 30 MO BEGINNING IN UTERO WITH PARENTS GIVEN THE SAME DIETARY DOSES (STUDY DURATION: 30 MO), Dose: 0, 0.1, 0.5, 1% IN DIET FOR 30 MO BEGINNING IN UTERO WITH PARENTS GIVEN THE SAME DIETARY DOSES (STUDY DURATION: 30 MO)): inactive; negative; carcinogen call (Species: RAT, Strain/Sex: CD-1/FEMALE, Route: ORAL, Dose: 0, 4% IN DIET FOR 30 MO BEGINNING IN UTERO WITH PARENTS GIVEN THE SAME DIETARY DOSES (STUDY DURATION: 30 MO)): inactive; negative; carcinogen call (Species: RAT, Strain/Sex: CD-1/MALE, Route: ORAL, Dose: 0, 0.1, 0.5, 1% IN DIET FOR 30 MO BEGINNING IN UTERO WITH PARENTS GIVEN THE SAME DIETARY DOSES (STUDY DURATION: 30 MO), Dose: 0, 0.1, 0.5, 1% IN DIET FOR 30 MO BEGINNING IN UTERO WITH PARENTS GIVEN THE SAME DIETARY DOSES (STUDY DURATION: 30 MO)): inactive; negative; carcinogen call (Species: RAT, Strain/Sex: CD-1/MALE, Route: ORAL, Dose: 0, 4% IN DIET FOR 30 MO BEGINNING IN UTERO WITH PARENTS GIVEN THE SAME DIETARY DOSES (STUDY DURATION: 30 MO), Tumor Site: Type of Lesion: THYROID: ADENOMA): active; positive

Which results are given for CCn1nc(C)c2c1C(c1ccccc1)=NCC(=O)N2?
carcinogen call (Species: MOUSE, Strain/Sex: CD-1/FEMALE, Route: ORAL, Dose: 0, 15, 150, MG/KG IN DIET FOR 78 WK (STUDY DURATION: 78 WK), Dose: 0, 15, 150, MG/KG IN DIET FOR 78 WK (STUDY DURATION: 78 WK)): inactive; negative; carcinogen call (Species: MOUSE, Strain/Sex: CD-1/MALE, Route: ORAL, Dose: 0, 15, 150, MG/KG IN DIET FOR 78 WK (STUDY DURATION: 78 WK), Dose: 0, 15, 150, MG/KG IN DIET FOR 78 WK (STUDY DURATION: 78 WK), Tumor Site: Type of Lesion: LIVER: ADENOMA): active; positive; carcinogen call (Species: RAT, Strain/Sex: CD/FEMALE, Route: ORAL, Dose: 0, 15, 150 MG/KG IN DIET FOR 104 WK (STUDY DURATION: 104 WK), Dose: 0, 15, 150 MG/KG IN DIET FOR 104 WK (STUDY DURATION: 104 WK)): inactive; negative; carcinogen call (Species: RAT, Strain/Sex: CD/MALE, Route: ORAL, Dose: 0, 15, 150 MG/KG IN DIET FOR 104 WK (STUDY DURATION: 104 WK), Dose: 0, 15, 150 MG/KG IN DIET FOR 104 WK (STUDY DURATION: 104 WK)): inactive; negative

For CCCCCCCCS(=O)C(C)Cc1ccc2c(c1)OCO2 (stereo unspecified), which carcinogen call (Species: MOUSE, Strain/Sex: B6C3F1/FEMALE, Route: ORAL, Dose: 0, 295, 754 PPM IN DIET, TWA, Dose: 0, 295, 754 PPM IN DIET, TWA) is on record?
Its carcinogen call is “inactive; negative”.

And the carcinogen call (Species: MOUSE, Strain/Sex: B6C3F1/MALE, Route: ORAL, Dose: 0, 350, 700 PPM IN DIET, Dose: 0, 350, 700 PPM IN DIET, Tumor Site: Type of Lesion: LIVER: HEPATOCELLULAR CARCINOMA)?
The carcinogen call was “active; positive”.

What about the carcinogen call (Species: RAT, Strain/Sex: F344/FEMALE, Route: ORAL, Dose: 0, 3000, 6000 PPM IN DIET, Dose: 0, 3000, 6000 PPM IN DIET) of the same compound?
The carcinogen call was “inactive; negative”.

What about the carcinogen call (Species: RAT, Strain/Sex: F344/MALE, Route: ORAL, Dose: 0, 1500, 3000 PPM IN DIET, Dose: 0, 1500, 3000 PPM IN DIET) of the same compound?
The carcinogen call was “inactive; negative”.

Which results are given for Cc1c(COC(=O)[C@@H]2[C@H](/C=C(\Cl)C(F)(F)F)C2(C)C)cccc1-c1ccccc1?
carcinogen call (Species: Mouse, Strain/Sex: Swiss-Webster Derived Tac(SW)fBR/Female (50/sex/group), Route: Oral, Dose: 0, 50, 200, 500, 600 ppm in feed for 20-21 months, Dose: 0, 50, 200, 500, 600 ppm in feed for 20-21 months): inactive; negative; purity 88.35% (98% cis- and 2% trans-isomer); carcinogen call (Species: Mouse, Strain/Sex: Swiss-Webster Derived Tac(SW)fBR/Male (50/sex/group), Route: Oral, Dose: 0, 50, 200, 500, 600 ppm in feed for 20-21 months, Dose: 0, 50, 200, 500, 600 ppm in feed for 20-21 months, Tumor Site: Type of Lesion: Urinary bladder: Leiomyosarcoma (Dose related increase, 29% at 600 ppm)): active; positive; purity 88.35% (98% cis- and 2% trans-isomer); carcinogen call (Species: Rat, Strain/Sex: Sprague-Dawley/Female (50/sex/group), Route: Oral, Dose: 0, 12, 50, 100, 200 ppm in feed for 2 yr, Dose: 0, 12, 50, 100, 200 ppm in feed for 2 yr): inactive; negative; purity 88.35% (98% cis- and 2% trans-isomer); carcinogen call (Species: Rat, Strain/Sex: Sprague-Dawley/Male (60/group), Route: Oral, Dose: 0, 12, 50, 100, 200 ppm in feed for 2 yr, Dose: 0, 12, 50, 100, 200 ppm in feed for 2 yr): inactive; negative; purity 88.35% (98% cis- and 2% trans-isomer)

Which carcinogen call (Species: RAT, Strain/Sex: STRAIN-CD/FEMALE, Route: INTRAPERITONEAL, Dose: 0, 100 UMOL/KG BW 2/WK FOR 6 WK (STUDY DURATION: 62 WK)) does the source give for CCC(=O)N(O)c1ccc(-c2ccccc2)cc1 here?
Its carcinogen call is “inactive; negative”.

How did the carcinogen call (Species: MOUSE, Route: ORAL, Tumor Site: Type of Lesion: LIVER, PITUITARY GLAND) turn out when C#C[C@]1(OC(C)=O)CC[C@H]2[C@@H]3CCC4=CC(=O)CC[C@@H]4[C@H]3CC[C@@]21C was run?
Its carcinogen call is “active; positive”.

And the carcinogen call (Species: RAT, Route: ORAL, Tumor Site: Type of Lesion: LIVER)?
The carcinogen call was “active; positive”.

How did the carcinogen call (Species: MOUSE, Strain/Sex: B6C3F1/FEMALE, Route: INTRAPERITONEAL, Dose: 0, 0.3 UMOL/G IN TRIOCTANOIN ONCE ON DAY 1 FOLLOWED BY 0.4 UMOL/G ONCE ON DAY 8, 15 AND 22 (STUDY DURATION: 10 MO)) turn out when CNc1ccc(N=Nc2ccccc2)cc1 was run?
Its carcinogen call is “inactive; negative”.

What about the carcinogen call (Species: MOUSE, Strain/Sex: B6C3F1/MALE, Route: INTRAPERITONEAL, Dose: 0, 0.017, 0.05, 0.15, 0.45 UMOL/G ONCE IN TRIOCTANOIN (STUDY DURATION: 10 MO), Dose: 0, 0.017, 0.05, 0.15, 0.45 UMOL/G ONCE IN TRIOCTANOIN (STUDY DURATION: 10 MO), Tumor Site: Type of Lesion: LIVER: HEPATOMA) of the same compound?
Its carcinogen call is “active; positive”.

And the carcinogen call (Species: MOUSE, Strain/Sex: B6C3F1/MALE, Route: INTRAPERITONEAL, Dose: 0, 0.3 UMOL/G IN TRIOCTANOIN ONCE ON DAY 1 FOLLOWED BY 0.4 UMOL/G ONCE ON DAY 8, 15 AND 22 (STUDY DURATION: 10 MO), Tumor Site: Type of Lesion: LIVER: HEPATOMA)?
Its carcinogen call is “active; positive”.

And the carcinogen call (Species: MOUSE, Strain/Sex: C3H/MALE, Route: INTRAPERITONEAL, Dose: 0, 0.45 UMOL/G ONCE IN TRIOCTANOIN (STUDY DURATION: 11 MO), Tumor Site: Type of Lesion: LIVER: HEPATOMA)?
The carcinogen call was “active; positive”.

What about the carcinogen call (Species: MOUSE, Strain/Sex: C57BL/MALE, Route: INTRAPERITONEAL, Dose: 0, 0.45 UMOL/G ONCE IN TRIOCTANOIN (STUDY DURATION: 11 MO), Tumor Site: Type of Lesion: LIVER: HEPATOMA) of the same compound?
The carcinogen call was “active; positive”.

And the carcinogen call (Species: RAT, Strain/Sex: F344/MALE, Route: INTRAPERITONEAL, Dose: 0, 0.3 UMOL/G IN TRIOCTANOIN ONCE ON DAY 1 FOLLOWED BY 0.4 UMOL/G ONCE ON DAY 8, 15 AND 22 (STUDY DURATION: 24 MO), Tumor Site: Type of Lesion: LIVER: HEPTOCELLULAR CARCINOMA)?
Its carcinogen call is “active; positive”.

And the carcinogen call (Species: RAT, Strain/Sex: SHERMAN, Route: ORAL, Dose: 0.056% IN DIET FOR 132 TO 250 D, Tumor Site: Type of Lesion: LIVER: HEPATOMA)?
The carcinogen call was “active; positive”.

What about the carcinogen call (Species: RAT, Strain/Sex: SPRAGUE-DAWLEY/MALE, Route: ORAL, Dose: 0.056% IN DIET FOR 4 MO, Tumor Site: Type of Lesion: LIVER: HEPATOMA) of the same compound?
The carcinogen call was “active; positive”.
